Test results published in patent US20260258084A1, “New Peptides as Selective IL-23 Receptor Antagonists” (Sanofi, priority 2022, published 2026).
Starred links: 1 amine or outer side, 2 acyl side, 3 side chain; linkers in the order of their positions; H or OH if unused. Positions of bridges follow the written chain, without caps; N, C: chain ends. Non-standard residues stand in square brackets, D forms with d. Residues, ends and D or L forms follow the SMILES beside them. *: point of attachment. Trp(7-Me) = Cc1cccc2c(C[C@H](N)C(=O)O)c[nH]c12; X1 = O=C(CCCCN[*:3])N[C@@H](CS[*:2])C(=O)[*:1]; αMeLys(Me2) = CN(C)CCCC[C@](C)(N)C(=O)O; 2Nal = N[C@@H](Cc1ccc2ccccc2c1)C(=O)O; AEF = NCCOc1ccc(C[C@H](N)C(=O)O)cc1; NMe5Ava = CN(CCCCC(=O)[*:2])[*:1]; 3Pal = N[C@@H](Cc1cccnc1)C(=O)O; αMeL = CC(C)C[C@](C)(N)C(=O)O; Me2NCH2CH2 = CN(C)CC*; Aib = CC(C)(N)C(=O)O; Ahx = NCCCCCC(=O)O; Ava = NCCCCC(=O)O; Sar = CNCC(=O)O

What was measured:
Pepsin = system: T1, Pepsin; assay: Protease stability in simulated gastric fluid (Pepsin-SGF, FaSSGF); assay type: in vitro ADME; conditions: simulated gastric fluid with pepsin (Pepsin-SGF), 60 min, 1 μM peptide, 37° C., read-out: FaSSGF 60 (min), remaining percent of peptide
T1 construct: purchased Merck Millipore
Description: (§1) Studies were carried out in simulated intestinal fluid (SIF) and simulated gastric fluid (SGF) to evaluate gastric stability of the peptide compounds disclosed herein.
For clarification the term “Pepsin-SGF” refers to a solution of simulated gastric fluid containing pepsin whereas “SGF media” refers to a solution of simulated gastric fluid without pepsin. Pepsin-SGF was prepared by dissolving 320 mg Pepsin (Merck Millipore) in 100 mL SGF media concentrate (ProSense).
(§2) Peptides were first dissolved at 1 mM stock concentration in 0.01 HCl (+/−10% of DMSO) and were than diluted further with water to a stock concentration of 20 μM. Final peptide concentration in the incubation was 1 μM.
(§3) To 76 μL of the Pepsin-SGF buffer, 4 μL of the 20 μM peptide stock solution was added and incubated at 37° C. At each timepoint (0, 60, 120 and 240 minutes) the reaction was quenched with addition of 80 μL Ethanol (0.1% HCOOH). The samples were centrifuged for 20 minutes and an aliquot of the supernatant 100 μL were transferred to a LoBind-MTP plate and analyzed by LCMS/MS. The peak area response was calculated at each time point for each test compound. As internal reference, the peak area response of the same test compound at TO was calculated. The percent remaining at each timepoint was calculated based on the peak area response ratio of the test compound at TO. Time 0 was set to 100%, and all later timepoints were calculated relative to time 0.

[1] = target: T2, human interleukin-23 receptor (recombinant human IL-23R-Fc chimera) (Homo sapiens, UniProt Q5VWK5); assay: Human ELISA IL23/IL23R (assay for specific human IL23R antagonists); assay type: binding; conditions: Table 10; read-out: Human ELISA IL23/IL23R IC50
T2 construct: Fc (IgG Fc fusion)
In short: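 Plates coated overnight at 4 °C with human IL23 ([…]), blocked, then serially diluted peptides added with recombinant human IL-23R-Fc (0.1 μg/ml final) for 60 min at room temperature. Bound receptor detected with anti-human IgG1-HRP and fluorogenic peroxidase substrate.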

Pancreatin = assay: Protease stability in simulated intestinal fluid (Pancreatin-SIF, FaSSIF); assay type: in vitro ADME; conditions: 1 μM peptide, 37° C.; for remaining at 1 h, 1 µM: 60 min, read-out: FaSSIF 60 (min), remaining percent of peptide; for remaining at 2 h, 1 µM: 120 min, read-out: FaSSIF 120 (min), remaining percent of peptide; for remaining at 4 h, 1 µM: 240 min, read-out: FaSSIF 240 (min), remaining percent of peptide
Description: as §1
Similarly, the term “Pancreatin-SIF” refers to a solution of simulated intestinal fluid containing pancreatin whereas “SIF-media” refers to a solution of simulated intestinal fluid without pancreatin.
Pancreatin-SIF was prepared by dissolving 1 mg Pancreatin (MP Biomedicals) in 10 mL SIF media concentrate (ProSense).
as §2
as §3, with “µM” for “μM”

[2] = system: IL-23 induced STAT3 signaling in HEK-Blue™ IL-23 cells; assay: IL-23 induced STAT3 signaling in HEK-Blue IL-23 cells (SEAP reporter); assay type: cell-based; conditions: human IL23 0.25 ng/ml, read-out: pSTAT3
In short: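 HEK-Blue IL-23 cells (10,000/well) pre-incubated 60 min at 37 °C with serially diluted peptides, then stimulated overnight with human IL-23 (0.25 ng/ml final). STAT3-driven SEAP in supernatant detected with QUANTI-Blue after 45 min at RT (OD 620-655 nm); dose-response curves fitted.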

| remaining at 1 h, 1 µM (Pepsin) | IC50 [1] | remaining at 1 h, 1 µM (Pancreatin) | remaining at 2 h, 1 µM (Pancreatin) | remaining at 4 h, 1 µM (Pancreatin) | Structure (SMILES) | IC50 [2] |
| --- | --- | --- | --- | --- | --- | --- |
| 70% | 0.45 nM | 73% | 58% | 47% | CC(=O)N[C@H]1CCCCNC(=O)[C@@H]2CSSC[C@H](NC(=O)[C@H](CCC(N)=O)NC(=O)[C@H](Cc3c[nH]c4ccccc34)NC1=O)C(=O)N[C@@H](Cc1ccc(OCCN(C)C)cc1)C(=O)N[C@@H](Cc1ccc3ccccc3c1)C(=O)NC(C)(C)C(=O)N[C@H](C(=O)N[C@@H](CC(N)=O)C(=O)NCC(N)=O)CCC(=O)NCCCCC(=O)N2 [compound 29] (Ac-KWQCY(Me2NCH2CH2)[2Nal][Aib]ENG-NH2; linker 1-4-8 via X1) | 8.16 nM |
| 99% | 0.36 nM | 83% | 72% | 55% | CC(=O)N[C@H]1CCCCNC(=O)[C@@H]2CSSC[C@H](NC(=O)[C@H](CCC(N)=O)NC(=O)[C@H](Cc3c[nH]c4ccccc34)NC1=O)C(=O)N[C@@H](Cc1ccc(OCCN(C)C)cc1)C(=O)N[C@@H](Cc1ccc3ccccc3c1)C(=O)N[C@@](C)(CC(C)C)C(=O)N[C@H](C(=O)N[C@@H](CC(N)=O)C(=O)NCC(N)=O)CCC(=O)NCCCCC(=O)N2 [compound 31] (Ac-KWQCY(Me2NCH2CH2)[2Nal][αMeL]ENG-NH2; linker 1-4-8 via X1) | 5.23 nM |
| 86% | 0.36 nM | 100% | 96% | 84% | CC[C@H](C)[C@H](NC(=O)[C@H](CC(N)=O)NC(=O)[C@H](CC(N)=O)NC(=O)[C@@H]1CCC(=O)NCCCCC(=O)N[C@H]2CSSC[C@H](NC(=O)[C@H](CCCCNC(C)=O)NC(=O)[C@H](Cc3c[nH]c4ccccc34)NC(=O)[C@H]([C@@H](C)O)NC(=O)[C@H](CC(N)=O)NC2=O)C(=O)N[C@@H](Cc2ccc(OCCN(C)C)cc2)C(=O)N[C@@H](Cc2ccc3ccccc3c2)C(=O)NC(C)(C)C(=O)N1)C(N)=O [compound 38] ([Ava]CNTWK(Ac)CY(Me2NCH2CH2)[2Nal][Aib]ENNI-NH2; disulfide 2-7; lactam N-11) | 11.9 nM |
| 90% | 0.35 nM | 83% | 71% | 57% | CC(C)C[C@]1(C)NC(=O)[C@H](Cc2ccc3ccccc3c2)NC(=O)[C@H](Cc2ccc(OCCN(C)C)cc2)NC(=O)[C@@H]2CSSC[C@H](NC(=O)CCCCN(C)C(=O)CC[C@@H](C(=O)N[C@@H](CC(N)=O)C(=O)N[C@@H](CC(N)=O)C(N)=O)NC1=O)C(=O)N[C@@H](CC(N)=O)C(=O)N[C@@H]([C@@H](C)O)C(=O)N[C@@H](Cc1c[nH]c3ccccc13)C(=O)N[C@@H](CCC(N)=O)C(=O)N2 [compound 41] ([NMe5Ava]CNTWQCY(Me2NCH2CH2)[2Nal][αMeL]ENN-NH2; disulfide 2-7; lactam N-11) | 1.6 nM |
| 100% | 0.33 nM | 83% | 72% | 67% | Cc1cccc2c(C[C@@H]3NC(=O)[C@H]([C@@H](C)O)NC(=O)[C@H](CC(N)=O)NC(=O)[C@@H]4CSSC[C@H](NC(=O)[C@H](CCC(N)=O)NC3=O)C(=O)N[C@@H](Cc3ccc(OCCN(C)C)cc3)C(=O)N[C@@H](Cc3ccc5ccccc5c3)C(=O)NC(C)(C)C(=O)N[C@H](C(=O)N[C@@H](CO)C(=O)N[C@@H](Cc3c[nH]cn3)C(N)=O)CCC(=O)NCCCCC(=O)N4)c[nH]c12 [compound 43] ([Ava]CNT[Trp(7-Me)]QCY(Me2NCH2CH2)[2Nal][Aib]ESH-NH2; disulfide 2-7; lactam N-11) | 1.31 nM |
| 102% | 0.5 nM | 81% | 76% | 65% | Cc1cccc2c(C[C@@H]3NC(=O)[C@H]([C@@H](C)O)NC(=O)[C@H](CC(N)=O)NC(=O)[C@@H]4CSSC[C@H](NC(=O)[C@H](CCC(N)=O)NC3=O)C(=O)N[C@@H](Cc3ccc(OCCN(C)C)cc3)C(=O)N[C@@H](Cc3ccc5ccccc5c3)C(=O)NC(C)(C)C(=O)N[C@H](C(=O)N[C@@H](CC(N)=O)C(=O)N[C@@H](Cc3c[nH]cn3)C(N)=O)CCC(=O)NCCCCC(=O)N4)c[nH]c12 [compound 52] ([Ava]CNT[Trp(7-Me)]QCY(Me2NCH2CH2)[2Nal][Aib]ENH-NH2; disulfide 2-7; lactam N-11) | 1.25 nM |
| 0% | 0.7 nM | 95% | 89% | 75% | C[C@H](NC(=O)[C@@H]1CC(=O)NCCCCCC(=O)N[C@H]2CSSC[C@H](NC(=O)[C@H](CCC(N)=O)NC(=O)[C@H](Cc3c[nH]c4ccccc34)NC(=O)CCCCNC2=O)C(=O)N[C@@H](Cc2ccc(OCCN)cc2)C(=O)N[C@@H](Cc2ccc3ccccc3c2)C(=O)NC(C)(C)C(=O)N1)C(=O)NCC(N)=O [compound 53] ([Ahx]C[Ava]WQC[AEF][2Nal][Aib]DAG-NH2; disulfide 2-6; lactam N-10) | 60.8 nM |
| 91% | 0.51 nM | 100% | 100% | 90% | CC(=O)NCCCC[C@@H]1NC(=O)[C@H](Cc2c[nH]c3c(C)cccc23)NC(=O)[C@H]([C@@H](C)O)NC(=O)[C@H](CC(N)=O)NC(=O)[C@@H]2CSSC[C@H](NC1=O)C(=O)N[C@@H](Cc1ccc(OCCN(C)C)cc1)C(=O)N[C@@H](Cc1ccc3ccccc3c1)C(=O)N[C@@](C)(CCCCN(C)C)C(=O)N[C@H](C(=O)N[C@@H](CC(N)=O)C(=O)N[C@H](CC(C)C)C(N)=O)CCC(=O)NCCCCC(=O)N2 [compound 54] ([Ava]CNT[Trp(7-Me)]K(Ac)CY(Me2NCH2CH2)[2Nal][αMeLys(Me2)]EN[dL]-NH2; disulfide 2-7; lactam N-11) | 2.59 nM |
| 61% | 0.23 nM | 95% | 80% | 52% | CC[C@H](C)[C@H](NC(=O)[C@H](CC(N)=O)NC(=O)[C@H](CC(N)=O)NC(=O)[C@@H]1CCC(=O)NCCCCC(=O)N[C@H]2CSSC[C@H](NC(=O)[C@H](CCC(N)=O)NC(=O)[C@H](Cc3c[nH]c4ccccc34)NC(=O)[C@H]([C@@H](C)O)NC(=O)[C@H](CC(N)=O)NC2=O)C(=O)N[C@@H](Cc2ccc(OCCN(C)C)cc2)C(=O)N[C@@H](Cc2ccc3ccccc3c2)C(=O)NC(C)(C)C(=O)N1)C(N)=O [compound 57] ([Ava]CNTWQCY(Me2NCH2CH2)[2Nal][Aib]ENNI-NH2; disulfide 2-7; lactam N-11) | 5.5 nM |
| 93% | 0.16 nM | 100% | 98% | 80% | CC(=O)NCCCC[C@@H]1NC(=O)[C@H](Cc2c[nH]c3ccccc23)NC(=O)[C@H]([C@@H](C)O)NC(=O)[C@H](CC(N)=O)NC(=O)[C@@H]2CSSC[C@H](NC1=O)C(=O)N[C@@H](Cc1ccc(OCCN(C)C)cc1)C(=O)N[C@@H](Cc1ccc3ccccc3c1)C(=O)N[C@@](C)(CCCCN(C)C)C(=O)N[C@H](C(=O)N[C@@H](CC(N)=O)C(=O)N[C@@H](Cc1cccnc1)C(=O)N(C)CC(N)=O)CCC(=O)NCCCCC(=O)N2 [compound 58] ([Ava]CNTWK(Ac)CY(Me2NCH2CH2)[2Nal][αMeLys(Me2)]EN[3Pal][Sar]-NH2; disulfide 2-7; lactam N-11) | 0.1 nM |
